What was measured:
Homo sapiens [1] = species on record: Homo sapiens; test: Selectivity ratio of Ki for human […]/APC-R3 interaction to Ki for human […]/Tcf4 interaction by alphascreen assay
Homo sapiens [2] = species on record: Homo sapiens; test: Selectivity ratio of Ki for human […]/E-cadherin interaction to Ki for human […]/Tcf4 interaction by alphascreen assay
TCF4/beta-catenin [3] = target: T1, TCF4/beta-catenin (Homo sapiens, UniProt P35222+Q9NQB0); test: Inhibition of human beta-catenin/Tcf4 interaction after 1 hr by alphascreen assay
[4] = target: Catenin beta-1/Cadherin-1 (Homo sapiens); test: Inhibition of human beta-catenin/E-cadherin interaction after 1 hr by alphascreen assay
[5] = target: Catenin beta-1/Adenomatous polyposis coli protein (Homo sapiens); test: Inhibition of human beta-catenin/APC-R3 interaction after 1 hr by alphascreen assay
[6] = target: Catenin beta-1/Adenomatous polyposis coli protein (Homo sapiens); test: Inhibition of human beta-catenin/APC-R3 interaction after 1 hr by fluorescence polarization assay
TCF4/beta-catenin [7] = target: T1, TCF4/beta-catenin; test: Inhibition of human […]/Tcf4 interaction after 1 hr by fluorescence polarization assay; format: protein-complex assay
Homo sapiens [8] = species on record: Homo sapiens; test: Selectivity ratio of Ki for human […]/APC-R3 interaction to Ki for human […]/Tcf4 interaction by fluorescence polarization assay
Homo sapiens [9] = species on record: Homo sapiens; test: Selectivity ratio of Ki for human […]/E-cadherin interaction to Ki for human […]/Tcf4 interaction by fluorescence polarization assay
[10] = target: Catenin beta-1/Cadherin-1 (Homo sapiens); test: Inhibition of human beta-catenin/E-cadherin interaction after 1 hr by fluorescence polarization assay

T1 sequence (P35222 whole entry): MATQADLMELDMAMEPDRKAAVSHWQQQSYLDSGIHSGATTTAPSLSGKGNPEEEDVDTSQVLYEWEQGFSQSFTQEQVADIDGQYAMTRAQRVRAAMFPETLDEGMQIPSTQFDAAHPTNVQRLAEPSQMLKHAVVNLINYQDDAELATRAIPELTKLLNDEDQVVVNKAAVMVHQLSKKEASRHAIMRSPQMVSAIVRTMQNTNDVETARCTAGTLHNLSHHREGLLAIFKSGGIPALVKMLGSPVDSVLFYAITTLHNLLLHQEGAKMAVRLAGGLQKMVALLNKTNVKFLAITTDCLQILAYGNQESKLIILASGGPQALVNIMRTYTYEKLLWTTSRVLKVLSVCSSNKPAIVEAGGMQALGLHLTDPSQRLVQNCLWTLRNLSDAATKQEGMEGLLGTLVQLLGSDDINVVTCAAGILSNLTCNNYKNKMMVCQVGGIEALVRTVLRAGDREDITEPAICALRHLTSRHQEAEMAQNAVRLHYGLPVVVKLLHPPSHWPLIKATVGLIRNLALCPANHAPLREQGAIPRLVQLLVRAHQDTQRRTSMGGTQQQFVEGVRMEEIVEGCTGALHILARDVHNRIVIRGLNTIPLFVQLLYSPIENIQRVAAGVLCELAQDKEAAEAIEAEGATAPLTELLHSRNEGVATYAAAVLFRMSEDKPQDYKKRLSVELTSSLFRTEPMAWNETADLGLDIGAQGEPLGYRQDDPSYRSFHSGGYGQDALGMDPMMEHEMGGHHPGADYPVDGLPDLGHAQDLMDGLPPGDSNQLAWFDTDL
T1 sequence (Q9NQB0 whole entry): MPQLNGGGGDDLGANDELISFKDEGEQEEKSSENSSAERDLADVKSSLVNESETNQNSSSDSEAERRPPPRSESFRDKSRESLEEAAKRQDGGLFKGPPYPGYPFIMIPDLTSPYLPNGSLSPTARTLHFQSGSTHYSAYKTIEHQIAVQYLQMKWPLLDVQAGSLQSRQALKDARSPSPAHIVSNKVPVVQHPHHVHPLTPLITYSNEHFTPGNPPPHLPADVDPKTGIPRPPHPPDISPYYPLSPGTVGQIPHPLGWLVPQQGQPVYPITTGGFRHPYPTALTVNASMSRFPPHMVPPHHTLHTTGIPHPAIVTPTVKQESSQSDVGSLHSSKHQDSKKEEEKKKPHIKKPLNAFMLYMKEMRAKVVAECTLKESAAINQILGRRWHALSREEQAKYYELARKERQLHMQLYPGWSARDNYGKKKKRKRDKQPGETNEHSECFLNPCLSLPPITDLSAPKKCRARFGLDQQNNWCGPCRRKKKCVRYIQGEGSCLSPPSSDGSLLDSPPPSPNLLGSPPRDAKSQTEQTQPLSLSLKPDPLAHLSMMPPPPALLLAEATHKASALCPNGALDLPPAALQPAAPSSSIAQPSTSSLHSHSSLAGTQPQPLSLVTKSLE

Compound	Ratio Ki (Homo sapiens [1])	Ratio Ki (Homo sapiens [2])	Ki (TCF4/beta-catenin [3]) [µM]	Ki [4] [µM]	Ki [5] [µM]	Ki [6] [µM]	Ki (TCF4/beta-catenin [7]) [µM]	Ratio Ki (Homo sapiens [8])	Ratio Ki (Homo sapiens [9])	Ki [10] [µM]
COc1cccc(/C=C2/SC(=S)N(CCC(=O)O)C2=O)c1OC	3.8	4.8	29	140	110	–	–	–	–	–
C=CCN1C(=O)/C(=N\NC(=O)C(=O)Nc2cccc(C(=O)O)c2)c2ccccc21	10.5	3.3	21	68	220	400	16	25	16.3	260
COc1c(C[C@@H](C)OC(=O)Oc2ccc(O)cc2)c2c3c(C[C@@H](C)OC(=O)c4ccccc4)c(OC)c(=O)c4c(O)cc(OC)c(c5c(OC)cc(O)c(c1=O)c52)c43 [CALPHOSTIN C]	–	–	–	–	–	–	18	–	–	–

Source: ChEMBL document CHEMBL2321680, “High-Throughput Selectivity Assays for Small-Molecule Inhibitors of β-Catenin/T-Cell Factor Protein-Protein Interactions” (ACS Med Chem Lett, 2013)
